The results in this text go back to ChEMBL document CHEMBL4130592, “In Silico HTS and Structure Based Optimization of Indazole-Derived ULK1 Inhibitors” (ACS Med Chem Lett, 2017).

Each structure is given as a SMILES string. Some results are limits rather than exact numbers.

For series [1], the target named is T1, Serine/threonine-protein kinase ULK1 (Homo sapiens, UniProt O75385).
T1 sequence (O75385 whole entry): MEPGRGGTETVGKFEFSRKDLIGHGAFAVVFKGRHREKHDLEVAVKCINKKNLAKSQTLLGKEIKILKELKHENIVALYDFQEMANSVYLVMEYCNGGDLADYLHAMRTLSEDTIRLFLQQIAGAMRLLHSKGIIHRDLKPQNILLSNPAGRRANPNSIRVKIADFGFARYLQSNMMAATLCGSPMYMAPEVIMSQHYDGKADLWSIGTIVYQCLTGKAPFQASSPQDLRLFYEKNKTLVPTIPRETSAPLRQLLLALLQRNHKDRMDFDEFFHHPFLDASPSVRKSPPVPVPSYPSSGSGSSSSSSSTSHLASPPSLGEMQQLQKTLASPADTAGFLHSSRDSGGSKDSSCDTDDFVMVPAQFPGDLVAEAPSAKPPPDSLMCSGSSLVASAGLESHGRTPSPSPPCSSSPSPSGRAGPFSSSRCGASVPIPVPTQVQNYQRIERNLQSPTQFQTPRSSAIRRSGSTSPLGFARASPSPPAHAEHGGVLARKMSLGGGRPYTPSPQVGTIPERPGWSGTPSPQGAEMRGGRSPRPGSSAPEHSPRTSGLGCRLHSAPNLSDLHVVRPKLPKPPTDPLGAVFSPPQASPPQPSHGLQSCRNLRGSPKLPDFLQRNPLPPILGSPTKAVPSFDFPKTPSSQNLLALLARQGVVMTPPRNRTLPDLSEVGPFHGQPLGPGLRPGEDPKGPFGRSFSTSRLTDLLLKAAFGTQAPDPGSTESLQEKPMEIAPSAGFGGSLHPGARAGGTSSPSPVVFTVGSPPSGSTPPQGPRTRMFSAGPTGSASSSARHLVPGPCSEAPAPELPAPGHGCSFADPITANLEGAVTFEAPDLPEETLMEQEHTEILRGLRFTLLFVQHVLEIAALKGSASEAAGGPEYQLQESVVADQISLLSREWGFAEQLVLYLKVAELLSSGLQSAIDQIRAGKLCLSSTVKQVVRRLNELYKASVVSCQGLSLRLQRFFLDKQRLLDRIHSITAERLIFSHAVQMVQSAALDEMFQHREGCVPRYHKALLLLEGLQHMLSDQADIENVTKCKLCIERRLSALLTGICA
The series is described as follows: Inhibition of ATG13 binding to full-length ULK1 (unknown origin) expressed in HEK293T cells preincubated for 15 mins followed by human C-terminal FLAG-tagged ATG13 addition measured after 30 mins by Alphascreen assay. It is filed as cell-based. On the technique in general: Bead proximity is the source of the signal in Alpha formats.

The target in another series is Cytochrome P450 3A4 (Homo sapiens, UniProt P08684). The experiment in a line: Inhibition of CYP3A4 (unknown origin) at 10 uM. It counts as ADME.
Chain of Cytochrome P450 3A4 (P08684 whole entry): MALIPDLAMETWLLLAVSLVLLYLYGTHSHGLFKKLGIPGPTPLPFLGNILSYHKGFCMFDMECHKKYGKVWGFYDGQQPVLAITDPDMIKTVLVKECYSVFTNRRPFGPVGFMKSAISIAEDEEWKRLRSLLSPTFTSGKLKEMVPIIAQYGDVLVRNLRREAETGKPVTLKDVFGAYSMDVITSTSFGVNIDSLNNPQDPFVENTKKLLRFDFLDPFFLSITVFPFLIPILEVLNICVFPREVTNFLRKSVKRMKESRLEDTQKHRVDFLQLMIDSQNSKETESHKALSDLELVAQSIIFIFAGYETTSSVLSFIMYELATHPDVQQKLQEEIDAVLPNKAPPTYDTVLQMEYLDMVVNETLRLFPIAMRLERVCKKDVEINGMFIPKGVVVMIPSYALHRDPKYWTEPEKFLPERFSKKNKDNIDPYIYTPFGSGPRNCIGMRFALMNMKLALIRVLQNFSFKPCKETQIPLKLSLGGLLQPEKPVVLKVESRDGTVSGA
The target in the next series is T2, Cytochrome P450 1A2 (Homo sapiens, UniProt P05177).
T2 sequence (P05177 whole entry): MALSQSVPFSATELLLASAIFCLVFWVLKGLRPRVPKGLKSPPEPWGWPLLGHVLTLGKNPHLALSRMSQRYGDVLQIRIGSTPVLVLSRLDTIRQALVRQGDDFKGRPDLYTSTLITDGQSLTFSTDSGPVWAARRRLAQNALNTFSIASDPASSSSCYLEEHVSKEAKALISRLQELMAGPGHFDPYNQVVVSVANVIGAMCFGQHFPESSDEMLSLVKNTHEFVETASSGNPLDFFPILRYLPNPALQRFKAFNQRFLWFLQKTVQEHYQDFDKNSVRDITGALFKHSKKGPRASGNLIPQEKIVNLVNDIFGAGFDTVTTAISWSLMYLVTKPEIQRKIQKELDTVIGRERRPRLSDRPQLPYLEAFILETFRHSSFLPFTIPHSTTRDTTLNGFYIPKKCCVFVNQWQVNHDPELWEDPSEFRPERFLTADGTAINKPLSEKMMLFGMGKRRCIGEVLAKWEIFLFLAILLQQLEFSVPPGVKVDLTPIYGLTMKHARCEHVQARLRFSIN
The experiment in a line: Inhibition of CYP1A2 (unknown origin) at 10 uM. It is filed as ADME.

For the next series, the target named is Cytochrome P450 2C9 (Homo sapiens, UniProt P11712). The series is described as follows: Inhibition of CYP2C9 (unknown origin) at 10 uM. It is filed as ADME.
Chain of Cytochrome P450 2C9 (P11712 whole entry): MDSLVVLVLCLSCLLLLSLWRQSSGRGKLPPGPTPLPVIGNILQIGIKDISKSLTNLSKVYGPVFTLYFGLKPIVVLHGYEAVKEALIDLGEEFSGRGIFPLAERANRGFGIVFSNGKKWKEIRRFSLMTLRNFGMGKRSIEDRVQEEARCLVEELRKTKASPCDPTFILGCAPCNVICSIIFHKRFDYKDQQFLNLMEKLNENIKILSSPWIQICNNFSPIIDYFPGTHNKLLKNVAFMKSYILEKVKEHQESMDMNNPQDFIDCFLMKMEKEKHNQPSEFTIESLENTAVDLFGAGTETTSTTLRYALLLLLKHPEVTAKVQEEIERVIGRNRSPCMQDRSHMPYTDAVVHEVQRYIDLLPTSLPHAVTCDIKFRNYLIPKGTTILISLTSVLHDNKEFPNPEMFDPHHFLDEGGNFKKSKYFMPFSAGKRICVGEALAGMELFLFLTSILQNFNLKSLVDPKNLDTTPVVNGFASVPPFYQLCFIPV
In the next series the target is Cytochrome P450 2D6 (Homo sapiens, UniProt P10635). The experiment in a line: Inhibition of CYP2D6 (unknown origin) at 10 uM. It is filed as ADME.
Chain of Cytochrome P450 2D6 (P10635 whole entry): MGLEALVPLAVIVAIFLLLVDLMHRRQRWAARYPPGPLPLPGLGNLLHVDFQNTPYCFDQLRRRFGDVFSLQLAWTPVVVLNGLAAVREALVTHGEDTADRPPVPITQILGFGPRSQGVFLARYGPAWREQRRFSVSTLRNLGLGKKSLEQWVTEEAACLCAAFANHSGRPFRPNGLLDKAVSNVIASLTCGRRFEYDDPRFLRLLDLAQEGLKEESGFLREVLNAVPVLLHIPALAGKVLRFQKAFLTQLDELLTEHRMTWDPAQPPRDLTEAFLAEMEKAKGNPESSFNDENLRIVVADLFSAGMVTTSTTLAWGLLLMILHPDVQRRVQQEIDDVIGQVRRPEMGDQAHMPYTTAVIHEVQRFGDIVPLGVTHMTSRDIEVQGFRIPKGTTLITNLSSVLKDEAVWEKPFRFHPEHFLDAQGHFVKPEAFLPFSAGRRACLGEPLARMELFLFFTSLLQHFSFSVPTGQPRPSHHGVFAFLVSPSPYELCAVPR
Series [2] can be described thus: Half life in human microsomes. It counts as ADME, Microsome.
The nature of series [3]: Stability in human microsomes. It is filed as ADME, Microsome.
Series [4] can be described thus: Stability in rat microsomes. It counts as ADME, Microsome.
Series [5] can be described thus: Stability in mouse microsomes. It is filed as ADME, Microsome.

As to `COc1ccc(CNc2n[nH]c3ccc(NC(=O)C4CCCC(N)C4)cc23)cc1` (stereo unspecified), the 50% inhibitory concentration (IC50) (as a rule, the concentration at which inhibition is half-maximal) in series [1] amounted to 0.477 µM.
Regarding `NCCCC(=O)Nc1ccc2[nH]nc(N)c2c1`, the concentration for half-maximal inhibition (IC50) in [1] was greater than 33 µM.
For `Nc1n[nH]c2ccc(NC(=O)[C@H]3CC[C@@H](N)CC3)cc12`, the IC50 in series [1] came to 1.49 µM.
The same measure, in the same setting: as for `O=C(Nc1ccc2[nH]nc(Nc3cccc4ccccc34)c2c1)C1CCN1` (stereo unspecified), the figure is 4.94 µM; as for `Nc1n[nH]c2ccc(NC(=O)C3CCCNC3)cc12` (racemic), 0.67 µM.
For the compound `N[C@H]1CCC[C@@H](C(=O)Nc2ccc3[nH]nc(Nc4cccc5ccccc45)c3c2)C1`, the “inhibition (INH)” value against Cytochrome P450 3A4, against Cytochrome P450 1A2, against Cytochrome P450 2C9 and on Cytochrome P450 2D6 was “Not Active” each time. The half-life (in general, the time needed for the level to fall by half in the phase considered) in series [2] was 3.73 h.
In series [1], `NC1CCCC(C(=O)Nc2ccc3[nH]nc(Nc4ccc(Br)cc4)c3c2)C1` (stereo unspecified) yielded an IC50 of 0.416 µM.
The same measure, in the same setting: as for `NC1CCCC(C(=O)Nc2ccc3[nH]nc(NC(=O)c4ccccc4)c3c2)C1` (stereo unspecified), the figure is 0.242 µM; as for `Nc1n[nH]c2ccc(NC(=O)[C@H]3CC[C@H](N)CC3)cc12`, 14 µM.
The same measure, in the same setting: under `Nc1n[nH]c2ccc(NC(=O)C3CCNCC3)cc12` stands 0.56 µM; under `NC1CCCC(C(=O)Nc2ccc3[nH]nc(Nc4ccnc5ccccc45)c3c2)C1` (stereo unspecified), 0.239 µM.
For the compound `NC1CCCC(C(=O)Nc2ccc3[nH]nc(Nc4cccc5ccccc45)c3c2)C1` (mixture of isomers), the “inhibition (INH)” value against Cytochrome P450 3A4, against Cytochrome P450 1A2, at Cytochrome P450 2C9 and against Cytochrome P450 2D6 was “Not Active” throughout. Also, the Stability entry in series [3], in series [4] and in series [5] was “Stable” in each case.
`COC(=O)c1cccc(Nc2n[nH]c3ccc(NC(=O)C4CCCC(N)C4)cc23)c1` (stereo unspecified) yielded an IC50 in series [1] of 0.183 µM.
`O=C(Nc1ccc2[nH]nc(Nc3cccc4ccccc34)c2c1)C1CCNCC1`: the “inhibition (INH)” value on Cytochrome P450 3A4, against Cytochrome P450 1A2, against Cytochrome P450 2C9 and against Cytochrome P450 2D6 was “Not Active” throughout. Besides, the Stability result in series [3], in series [4] and in series [5] was “Stable” in each case. In series [1], this compound displayed a concentration for half-maximal inhibition (IC50) of 0.315 µM.
In series [1], `NC1CCCC(C(=O)Nc2ccc3[nH]nc(Nc4cccc(C(F)(F)F)c4)c3c2)C1` (stereo unspecified) came in with an IC50 of 0.288 µM.
On the same count and under the same terms, under `Nc1n[nH]c2ccc(NC(=O)C3CCCCN3)cc12` (racemic) stands 0.84 µM.
With `COc1ccccc1Nc1n[nH]c2ccc(NC(=O)C3CCCC(N)C3)cc12` (stereo unspecified), the “inhibition (INH)” value on Cytochrome P450 3A4, on Cytochrome P450 1A2, against Cytochrome P450 2C9 and on Cytochrome P450 2D6 was “Not Active” in each case. Moreover, the Stability entry in series [3], in [4] and in series [5] was “Stable” in each case. In addition, in [1], the 50% inhibitory concentration (IC50) was 0.11 µM.
On to `NC1CCCC(C(=O)Nc2ccc3[nH]nc(Nc4cccc5cnccc45)c3c2)C1` (stereo unspecified), for which the half-maximal inhibitory concentration (IC50) in series [1] amounted to 0.04 µM.
For `CN(C)C1CCCC(C(=O)Nc2ccc3[nH]nc(Nc4cccc5ccccc45)c3c2)C1` (stereo unspecified), the IC50 in series [1] stood at 4.23 µM.
On the same count and under the same terms, as for `Nc1cccc(C(=O)Nc2ccc3[nH]nc(N)c3c2)c1`, the figure is 18.1 µM; as for `O=C(Nc1ccc2[nH]nc(Nc3cccc4ccccc34)c2c1)C1CCOCC1`, 1.83 µM; as for `NC1CCCC(C(=O)Nc2ccc3[nH]nc(Nc4ccccc4)c3c2)C1` (stereo unspecified), 2.73 µM.
